Assay results as given in publication PMC4896931, “The discovery of 2-substituted phenol quinazolines as potent RET kinase inhibitors with improved KDR selectivity” (European Journal of Medicinal Chemistry, 2016).
pIC50: −log10 of the molar value. Structures can show the parent of a compound that is named as a salt.

Tests used:
[1] = biological target: KDR (Homo sapiens, UniProt P35968)
[2] = biological target: T1, BaF3 cells expressing KIF5B-RET (Homo sapiens, UniProt P07949+P33176)
T1 sequence (P33176+P07949 with tags, fused parts or gaps): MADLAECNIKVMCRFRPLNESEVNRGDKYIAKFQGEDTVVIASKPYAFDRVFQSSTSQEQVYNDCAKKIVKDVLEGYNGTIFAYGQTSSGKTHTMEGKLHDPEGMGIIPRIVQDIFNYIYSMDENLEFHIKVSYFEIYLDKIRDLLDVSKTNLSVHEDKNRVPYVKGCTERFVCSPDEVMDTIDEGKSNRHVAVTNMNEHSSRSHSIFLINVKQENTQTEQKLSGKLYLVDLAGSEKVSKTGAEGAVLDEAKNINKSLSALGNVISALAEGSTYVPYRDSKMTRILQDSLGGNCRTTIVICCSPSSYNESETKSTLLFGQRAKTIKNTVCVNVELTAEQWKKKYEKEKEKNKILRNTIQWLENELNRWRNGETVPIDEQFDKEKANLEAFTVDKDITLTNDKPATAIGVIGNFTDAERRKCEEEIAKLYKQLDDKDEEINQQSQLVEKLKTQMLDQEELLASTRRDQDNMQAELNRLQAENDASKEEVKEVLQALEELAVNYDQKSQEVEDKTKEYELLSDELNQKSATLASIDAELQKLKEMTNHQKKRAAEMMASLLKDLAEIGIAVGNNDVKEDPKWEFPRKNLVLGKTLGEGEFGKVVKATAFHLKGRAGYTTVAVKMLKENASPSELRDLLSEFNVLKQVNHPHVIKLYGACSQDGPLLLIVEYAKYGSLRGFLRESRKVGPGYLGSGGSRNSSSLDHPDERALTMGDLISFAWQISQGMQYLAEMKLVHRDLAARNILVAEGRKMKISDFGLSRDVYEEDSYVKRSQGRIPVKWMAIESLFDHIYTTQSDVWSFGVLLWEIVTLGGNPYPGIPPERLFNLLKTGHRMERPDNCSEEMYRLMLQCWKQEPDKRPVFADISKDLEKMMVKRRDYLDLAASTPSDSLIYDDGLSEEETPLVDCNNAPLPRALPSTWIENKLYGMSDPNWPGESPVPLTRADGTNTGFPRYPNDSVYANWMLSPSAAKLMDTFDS

[3] = Human hepatocyte stability; format: in vitro ADME; settings: human hepatocytes
[4] = in vitro; settings: mouse
[5] = Aqueous solubility; format: physicochemical; settings: aqueous medium (not further specified)
[6] = Caco-2 permeability; format: in vitro ADME; settings: human; Caco-2 cells
[7] = Mouse pharmacokinetics (intravenous and oral); format: in vivo, male CD-1 mice
Protocol: All studies were conducted after review by the Animal Welfare and Ethical Review Body at CRUK:MI and in accordance with the University of Manchester Policy on the use of animals in research. All work was carried out in compliance with the Animals (Scientific Procedures) Act 1986. Pharmacokinetics were studied in male CD-1 mice following single intravenous or oral administration. Blood samples were collected as dried blood spots and assayed following solvent extraction through a phospholipid removal plate followed by LC-MS/MS analysis. The resulting concentration-time data were analysed by non-compartmental methods (PK Solver, Excel Add-In).

[8] = Mouse hepatocyte stability; format: in vitro ADME; settings: mouse hepatocytes
[9] = non-modified (wild-type, non RET-driven) BaF3 cells

Sequence of KDR (P35968 20-1356): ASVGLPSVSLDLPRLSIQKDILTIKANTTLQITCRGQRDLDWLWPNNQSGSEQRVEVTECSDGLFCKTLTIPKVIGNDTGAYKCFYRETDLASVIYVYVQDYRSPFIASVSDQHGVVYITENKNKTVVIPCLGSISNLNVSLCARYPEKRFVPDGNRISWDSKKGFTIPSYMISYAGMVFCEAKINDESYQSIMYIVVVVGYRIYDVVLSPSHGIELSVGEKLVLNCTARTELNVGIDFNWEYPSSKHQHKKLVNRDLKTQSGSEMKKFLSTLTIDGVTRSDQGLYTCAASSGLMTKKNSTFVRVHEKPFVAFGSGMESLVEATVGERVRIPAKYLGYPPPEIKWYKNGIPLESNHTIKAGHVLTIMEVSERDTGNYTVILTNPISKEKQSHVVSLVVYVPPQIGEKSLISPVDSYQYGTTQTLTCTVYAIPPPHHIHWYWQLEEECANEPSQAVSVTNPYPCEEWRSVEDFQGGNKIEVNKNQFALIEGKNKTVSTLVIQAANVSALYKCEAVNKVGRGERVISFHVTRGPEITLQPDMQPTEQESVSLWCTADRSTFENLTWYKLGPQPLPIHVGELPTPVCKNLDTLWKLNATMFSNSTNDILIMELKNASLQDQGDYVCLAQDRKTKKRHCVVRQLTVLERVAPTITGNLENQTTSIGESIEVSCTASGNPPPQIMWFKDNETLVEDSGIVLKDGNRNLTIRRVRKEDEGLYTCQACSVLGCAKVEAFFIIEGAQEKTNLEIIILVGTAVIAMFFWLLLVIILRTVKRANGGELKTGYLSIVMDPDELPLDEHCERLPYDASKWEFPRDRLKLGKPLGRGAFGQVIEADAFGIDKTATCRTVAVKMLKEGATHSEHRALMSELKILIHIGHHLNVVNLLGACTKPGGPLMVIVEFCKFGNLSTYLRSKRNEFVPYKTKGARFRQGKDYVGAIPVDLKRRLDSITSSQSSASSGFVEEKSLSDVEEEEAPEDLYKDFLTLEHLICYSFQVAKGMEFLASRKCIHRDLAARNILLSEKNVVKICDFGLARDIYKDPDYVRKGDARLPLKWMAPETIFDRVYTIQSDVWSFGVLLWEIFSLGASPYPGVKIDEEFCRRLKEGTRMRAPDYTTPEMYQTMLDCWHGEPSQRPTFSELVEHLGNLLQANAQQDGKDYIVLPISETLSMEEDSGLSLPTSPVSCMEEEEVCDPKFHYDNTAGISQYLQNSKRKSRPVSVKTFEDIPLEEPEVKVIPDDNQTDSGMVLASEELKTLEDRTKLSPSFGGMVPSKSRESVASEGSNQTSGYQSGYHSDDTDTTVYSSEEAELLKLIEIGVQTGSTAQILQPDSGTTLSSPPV

Structure (SMILES) | pIC50 [1] | pIC50 [2] | hepatocyte CLint [3] [µL/min/1e6 cells] | other results
COc1cc2ncnc(Nc3ccc(Br)cc3F)c2cc1OC [Compound 4] | 6.34 | 5.77 |  | 
COc1cc2ncnc(Nc3cccc(O)c3O)c2cc1OC [Compound 10, 3-((6,7-Dimethoxyquinazolin-4-yl)amino)benzene-1,2-diol hydrochloride] |  |  | 95.5 | IC50 at 48 h [4, 9]: > 10000 nM
COc1cc2ncnc(Nc3cccc(O)c3Cl)c2cc1OC [Compound 12, 2-Chloro-3-((6,7-dimethoxyquinazolin-4-yl)amino)phenol hydrochloride] |  |  | 174 | IC50 at 48 h [4]: > 10000 nM
COc1cc2ncnc(Nc3cccc(O)c3C)c2cc1OC [Compound 13, 3-((6,7-Dimethoxyquinazolin-4-yl)amino)-2-methylphenol hydrochloride] |  |  | 28.4 | IC50 at 48 h [4]: > 10000 nM
COc1cc2ncnc(Nc3cccc(O)c3OC)c2cc1OC [Compound 15, 3-((6,7-Dimethoxyquinazolin-4-yl)amino)-2-methoxyphenol] | < 5.00 |  |  | 
COc1cc2ncnc(Nc3cccc(O)c3C(F)(F)F)c2cc1OC [Compound 17, 3-((6,7-Dimethoxyquinazolin-4-yl)amino)-2-(trifluoromethyl)phenol] | < 5.00 |  |  | 
COc1cc2ncnc(Nc3cccc(O)c3C#N)c2cc1OC [Compound 18, 2-((6,7-Dimethoxyquinazolin-4-yl)amino)-6-hydroxybenzonitrile] | < 5.00 |  |  | 
COc1cc2ncnc(Nc3ccc(C)c(O)c3)c2cc1OC [Compound 20] | 7.74 | 6.30 |  | 
COc1cc2ncnc(Nc3ccc(Cl)c(O)c3)c2cc1OC [Compound 21] | 7.24 | 6.03 |  | 
COc1cc2ncnc(Nc3cc(O)c(F)cc3F)c2cc1OC [Compound 28] | 8.02 | 7.28 |  | 
COc1cc2ncnc(Nc3cc(O)c(C)cc3F)c2cc1OC [Compound 30] | 8.64 | 7.39 | 91.9 | IC50 at 48 h [4, 9]: > 1000 nM
COc1cc2ncnc(Nc3c(F)ccc(O)c3F)c2cc1OC [Compound 33, 3-((6,7-Dimethoxyquinazolin-4-yl)amino)-2,4-difluorophenol] | 7.16 | 6.92 | 68.9 | IC50 at 48 h [4, 9]: > 10000 nM
COc1cc2ncnc(Nc3c(Cl)ccc(O)c3F)c2cc1OC [Compound 34, 4-Chloro-3-((6,7-dimethoxyquinazolin-4-yl)amino)-2-fluorophenol] |  |  | 93.3 | IC50 at 48 h [4]: > 10000 nM
COc1cc2ncnc(Nc3cc(F)cc(O)c3C)c2cc1OC [Compound 35, 3-((6,7-Dimethoxyquinazolin-4-yl)amino)-5-fluoro-2-methylphenol hydrochloride] |  |  | 54.8 | IC50 at 48 h [4, 9]: > 10000 nM
COc1cc2ncnc(Nc3c(F)ccc(O)c3C)c2cc1OC [Compound 36, 3-((6,7-Dimethoxyquinazolin-4-yl)amino)-4-fluoro-2-methylphenol hydrochloride] |  |  | 20.9 | solubility [5]: > 100 µM; Papp [6]: 8.2 ×10⁻⁶ cm/s; Total blood clearance ([7]; intravenous): < 10 % LBF; Oral half-life ([7]; oral): approximately 2 h; bioavailability ([7]; oral): approximately 35%; hepatocyte CLint [8]: 38.1 µL/min/1e6 cells
COc1cc2ncnc(Nc3c(Cl)ccc(O)c3C)c2cc1OC [Compound 37, 4-Chloro-3-((6,7-dimethoxyquinazolin-4-yl)amino)-2-methylphenol] | < 5.00 | 5.44 |  | 
COc1cc2ncnc(Nc3c(Cl)ccc(O)c3Cl)c2cc1OC [Compound 39, 2,4-Dichloro-3-((6,7-dimethoxyquinazolin-4-yl)amino)phenol] | 5.85 |  |  | 
COc1cc2ncnc(Nc3c(F)ccc(O)c3Cl)c2cc1OC [Compound 40, 2-Chloro-3-((6,7-dimethoxyquinazolin-4-yl)amino)-4-fluorophenol] | 5.96 |  | 66.7 | IC50 at 48 h [4]: > 10000 nM

The next lines start with results.

pIC50 [1] | pIC50 [2] | hepatocyte CLint [3] [µL/min/1e6 cells] | Structure (SMILES) | other results
 |  | 76.9 | COc1cc2ncnc(Nc3cccc(O)c3)c2cc1OC [Compound 6] | IC50 at 48 h [4, 9]: > 10000 nM
5.55 |  |  | COc1cc2ncnc(Nc3ccc(O)cc3)c2cc1OC [Compound 7] | 
5.12 |  |  | COc1cc2ncnc(Nc3cccc(N)c3)c2cc1OC [Compound 8] | 
5.32 |  |  | COc1cccc(Nc2ncnc3cc(OC)c(OC)cc23)c1 [Compound 9] | 
 |  | 157 | COc1cc2ncnc(Nc3cccc(O)c3Br)c2cc1OC [Compound 11, 2-Bromo-3-((6,7-dimethoxyquinazolin-4-yl)amino)phenol hydrochloride] | IC50 at 48 h [4, 9]: > 10000 nM
6.55 |  |  | COc1cc2ncnc(Nc3cccc(O)c3F)c2cc1OC [Compound 14, 3-((6,7-Dimethoxyquinazolin-4-yl)amino)-2-fluorophenol] | 
7.70 | 7.28 |  | COc1cc2ncnc(Nc3cc(O)ccc3F)c2cc1OC [Compound 25] | 
7.15 | 7.07 |  | COc1cc2ncnc(Nc3cc(O)ccc3Cl)c2cc1OC [Compound 26, 4-Chloro-3-((6,7-dimethoxyquinazolin-4-yl)amino)phenol] | 
6.82 | 6.21 |  | COc1cc2ncnc(Oc3cccc(O)c3)c2cc1OC [Compound 42, 3-((6,7-Dimethoxyquinazolin-4-yl)oxy)phenol] | 
